One data set deals with T1, Tb AdoMetDC/Tc Prozyme (Trypanosoma brucei, UniProt P50244).
T1 sequence (P50244 1-85): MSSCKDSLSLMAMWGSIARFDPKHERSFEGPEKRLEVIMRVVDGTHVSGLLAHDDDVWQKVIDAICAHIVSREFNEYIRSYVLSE
T1 sequence (P50244 86-370): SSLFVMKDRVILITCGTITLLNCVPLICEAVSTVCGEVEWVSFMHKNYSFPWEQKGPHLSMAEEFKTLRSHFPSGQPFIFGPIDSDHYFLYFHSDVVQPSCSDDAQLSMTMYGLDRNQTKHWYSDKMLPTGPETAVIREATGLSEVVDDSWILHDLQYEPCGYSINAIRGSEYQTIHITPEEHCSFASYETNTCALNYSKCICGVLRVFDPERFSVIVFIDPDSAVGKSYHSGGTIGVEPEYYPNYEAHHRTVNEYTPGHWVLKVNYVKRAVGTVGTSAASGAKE
T1 sequence (Q4DQQ6 1-326 partner): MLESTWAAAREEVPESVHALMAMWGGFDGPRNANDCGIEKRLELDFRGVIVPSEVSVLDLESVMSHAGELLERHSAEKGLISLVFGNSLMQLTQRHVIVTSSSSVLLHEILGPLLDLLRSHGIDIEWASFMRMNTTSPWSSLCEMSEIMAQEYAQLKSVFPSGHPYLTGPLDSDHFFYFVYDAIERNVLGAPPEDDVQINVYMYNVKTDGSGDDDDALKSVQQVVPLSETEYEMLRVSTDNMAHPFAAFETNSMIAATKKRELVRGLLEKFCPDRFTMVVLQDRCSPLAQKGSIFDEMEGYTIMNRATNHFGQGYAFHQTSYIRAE
Format: biochemical. The following applies: 5 mM putrescine; allosteric activator; pH 8.0, 37 °C.

The next data set concerns the target T2, Tc AdoMetDC/Tb Prozyme (Trypanosoma cruzi, UniProt O76240).
T2 sequence (O76240 1-85): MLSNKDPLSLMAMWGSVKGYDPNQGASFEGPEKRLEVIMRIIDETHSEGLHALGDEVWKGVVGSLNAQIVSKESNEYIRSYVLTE
T2 sequence (O76240 86-370): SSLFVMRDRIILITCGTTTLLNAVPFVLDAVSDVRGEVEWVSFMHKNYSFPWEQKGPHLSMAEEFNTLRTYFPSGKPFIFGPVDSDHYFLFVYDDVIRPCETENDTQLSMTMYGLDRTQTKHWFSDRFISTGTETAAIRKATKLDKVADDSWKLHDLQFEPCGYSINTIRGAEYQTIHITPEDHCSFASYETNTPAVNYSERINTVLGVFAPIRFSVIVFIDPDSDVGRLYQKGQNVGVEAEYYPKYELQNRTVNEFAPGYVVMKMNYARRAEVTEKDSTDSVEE
T2 sequence (A5HNV6 1-325 partner): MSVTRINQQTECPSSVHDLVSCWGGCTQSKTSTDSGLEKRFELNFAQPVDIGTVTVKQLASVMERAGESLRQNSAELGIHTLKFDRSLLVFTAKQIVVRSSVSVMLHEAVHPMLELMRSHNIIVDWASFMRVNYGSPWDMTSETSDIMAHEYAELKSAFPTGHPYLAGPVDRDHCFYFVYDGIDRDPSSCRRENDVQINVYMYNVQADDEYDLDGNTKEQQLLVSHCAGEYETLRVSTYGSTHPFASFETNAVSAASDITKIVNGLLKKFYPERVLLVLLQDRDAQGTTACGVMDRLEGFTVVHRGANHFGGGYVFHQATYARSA
The data set is classed as biochemical. The following applies: 5 mM putrescine; allosteric activator; pH 8.0, 37 °C.

Substrate in the data set “purified protein”: C[S+](CC[C@H](N)C(=O)O)C[C@H]1O[C@@H](n2cnc3c(N)ncnc32)[C@H](O)[C@@H]1O
Nature of the data set: purified protein. The following applies: pH 8.0; 37.0 °C.

For `NCCCCN` [putrescine], the “activation of AdoMet decarboxylation, 14CO2 trapping” value at Tb AdoMetDC/Tc Prozyme is given as “when putrescine was included, both cross-species heterodimers were further activated”; at Tc AdoMetDC/Tb Prozyme it was “when putrescine was included, both cross-species heterodimers were further activated”.

B1: Tc AdoMetDC/Tb Prozyme (Trypanosoma cruzi) (protein)
chain 1: MLSNKDPLSLMAMWGSVKGYDPNQGASFEGPEKRLEVIMRIIDETHSEGLHALGDEVWKGVVGSLNAQIVSKESNEYIRSYVLTE
chain 2: SSLFVMRDRIILITCGTTTLLNAVPFVLDAVSDVRGEVEWVSFMHKNYSFPWEQKGPHLSMAEEFNTLRTYFPSGKPFIFGPVDSDHYFLFVYDDVIRPCETENDTQLSMTMYGLDRTQTKHWFSDRFISTGTETAAIRKATKLDKVADDSWKLHDLQFEPCGYSINTIRGAEYQTIHITPEDHCSFASYETNTPAVNYSERINTVLGVFAPIRFSVIVFIDPDSDVGRLYQKGQNVGVEAEYYPKYELQNRTVNEFAPGYVVMKMNYARRAEVTEKDSTDSVEE
As a reminder, the Km is the concentration of substrate that gives half-maximal velocity. Take B1: the Km in the data set “purified protein” came out at 440 ± 14 µM.

Source of the values: publication PMC2730992 (Molecular and biochemical parasitology, 2009).
